This assay has as its target T1, human IRAK-4 (Homo sapiens, UniProt Q9NWZ3).
T1 construct: purchased Carna Biosciences 09 145
T1 sequence (Q9NWZ3 1-460): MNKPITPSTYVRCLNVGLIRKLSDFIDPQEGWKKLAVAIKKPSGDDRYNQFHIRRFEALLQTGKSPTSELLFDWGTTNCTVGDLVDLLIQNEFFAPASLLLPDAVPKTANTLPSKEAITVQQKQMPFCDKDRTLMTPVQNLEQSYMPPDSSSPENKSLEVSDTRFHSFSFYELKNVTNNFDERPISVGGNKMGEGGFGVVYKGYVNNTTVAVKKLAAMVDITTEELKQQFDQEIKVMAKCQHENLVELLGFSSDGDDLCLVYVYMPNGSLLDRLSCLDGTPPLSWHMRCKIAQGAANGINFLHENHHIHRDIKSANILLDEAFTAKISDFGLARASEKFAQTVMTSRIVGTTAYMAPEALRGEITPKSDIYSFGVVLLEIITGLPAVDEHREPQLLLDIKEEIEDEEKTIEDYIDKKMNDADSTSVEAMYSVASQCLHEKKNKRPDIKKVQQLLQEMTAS
Briefly: Phosphorylation IC50 determination for human IRAK-4 (ADP-Glo kinase assay). It counts as biochemical. Conditions: RIP140 substrate, Km ATP, read-out: IRAK4 IC50. Here is the method: 3.1. Phosphorylation IC50 Determination for Human IRAK-4
The phosphorylation of the substrate RIP140 (SEQ IDi1) by IRAK4 at Km ATP was detected with the ADP-Glo Kinase Assay (Promega, Cat #V9103), a luminescent kinase assay which measures the ADP formed from a kinase reaction. (Zegzouti et al., 2009) In a second step the kinase reaction is terminated and all the remaining ATP was depleted. In a final step the ADP was converted into ATP and this newly synthesized ATP was measured by using a luciferase/luciferin reaction with a luminescent reader. The luminescent signal positively correlated with kinase activity, in particular kinase inhibition giving a decrease of the luminescent signal.
For the semi-automated assay, the positive control (100% inhibition) was prepared by diluting 10 mM staurosporine stock mixture (20 μL) in water (3.8 mL) and DMSO (180 μL), thus resulting in a […] staurosporine solution at 1% DMSO (final concentration after further dilution in the kinase reaction).
For the automated assay, no pre-dilution of the 10 mM staurosporine stock was made. 10 mM staurosporine was spotted directly in the assay plate using acoustic dispensing and complemented with DMSO to result in a similar final concentration as mentioned above.
For the semi-automated assay, the negative control (0% inhibition) was prepared by mixing water (3.8 mL) and DMSO (200 μL) resulting in a final concentration of 1% DMSO after further dilution in the kinase reaction. For the automated assay no pre-dilution of DMSO was done. 100% DMSO was spotted directly on the assay plate.
The assay buffer solution was prepared at a concentration corresponding to 5 fold the final (most diluted) assay concentration by mixing a solution of 125 mM TRIS pH 7.5+0.05% Triton X-100+2.5 mM EGTA (5.27 mL) with 1M MgCl2 (72 μL), 1M DTT (57.6 μL), and 200 mM MnCl2 (360 μL).
For example, for the semi-automated method, the enzyme-substrate mixture was prepared by mixing water (3999 μL), assay buffer solution (1380 μL), 1 mM RIP140 (138 μL—SEQ ID1), and 200 ng/mL IRAK 4 (3.45 μL Carna Biosciences, 09 145).
For semi-automated method, the ATP mixture was prepared at a concentration corresponding to 2.5 fold the final (most diluted) assay concentration of the semi-automated method and 1.5 fold the final (most diluted) assay concentration of the automated method. For example, for the semi-automated method, the ATP mixture was prepared by mixing water (4126 μL), assay buffer solution (1380 μL), and 10 mM ATP (13.80 μL).
The assay was performed either in a semi-automated or fully automated manner. The assay volume and the incubation time of the ADP detection were different accordingly the method used.
3.1.3.1. Semi-Automated Assay
The compounds were prepared as a serial dilution of 10 point dose responses with 1/5 dilution steps in 100% DMSO starting from 2 mM highest concentration, diluted 1/20 in water. 1 μL was transferred dry to the assay plates.
On each assay plate 32 wells of each control (positive & negative) were added, followed by 2 μL enzyme-substrate mixture.
The reaction was started by adding 2 μL diluted ATP (final concentration Km ATP) on the assay plates. Plates were centrifuged for a few seconds at 1000 rpm followed by an incubation at r.t. for 120 min.
The reactions were stopped and the unconsumed ATP was depleted by adding 5 μL ADP-glo Reagent (Promega, Cat #V9103) to the reaction. The plates were quickly centrifuged at 1000 rpm and incubated at r.t. for 40 min corresponding to full ATP depletion.
The ADP was converted back to ATP and luciferase and luciferin were introduced to detect ATP by adding 10 μL kinase detection reagent (Promega, Cat #V9103) to the reaction. The plates were centrifuged for a few seconds at 1000 rpm and incubated at r.t. for a further 30 min.
Luminescent read out was performed on an Envision luminescent reader (Perkin Elmer). […]
(In general: ADP-Glo turns the ADP formed in a reaction into a luminescent signal.)

The results in this text go back to patent publication US20220218679A1, “NOVEL COMPOUNDS AND PHARMACEUTICAL COMPOSITIONS THEREOF FOR THE TREATMENT OF INFLAMMATORY DISORDERS” (Galapagos NV, priority 2019, published 2022).

As usually defined, the IC50 is the point on the concentration scale where inhibition reaches its midpoint. In the case of `[2H]C([2H])([2H])Oc1cn2nc(CCC(C)(C)O)cc2cc1NC(=O)c1cccn(C2CC2)c1=O` [Compound 24, 1-cyclopropyl-N-[2-(3-hydroxy-3-methylbutyl)-6-(trideuteriomethoxy)pyrazolo[1,5-a]pyridin-5-yl]-2-oxopyridine-3-carboxamide], the IC50 is 0.1 to 5 nM.
